Common to all, as to type: in vivo, human
The subject of data set [1] is participants with NT2. Put plainly: Safety (TEAEs), Phase 2 NT2 trial. The protocol: The principal mitigation strategy for risks related to BP increase, HR increase, insomnia, and bladder events included appropriate selection of the study population; use of the inpatient clinical research unit setting and home health visits, which permitted close monitoring and rapid institution of appropriate care as needed; appropriate specified monitoring procedures; and use of experienced staff trained in study procedures. To mitigate cardiovascular risks, BP and HR were measured frequently in this study; cardiovascular effects were evaluated by using BP and HR assessments and electrocardiographic (ECG) assessments. Stopping rules for individual participants and the overall study were established. In addition, because liver function test (LFT) elevation cases have been observed in another OX2R agonist with structural similarity, LFTs (ALT, AST, GGT, and total bilirubin) were closely monitored.
Liver function test (LFTs) (alanine aminotransferase [ALT], aspartate aminotransferase [AST], γ-glutamyl transferase [GGT], and total bilirubin) were closely monitored in this study. Stopping criteria for individual participants and the overall study, based on abnormal LFTs were established.
Eligible participants were age 18-70 years, with Epworth Sleepiness Scale (ESS) score>12 and no other current EDS-related medical conditions. Participants were randomized 1:1:1 to daily oral Compound A 2 mg twice 3 hours apart, 2 mg then 5 mg 3 hours later, or placebo. Study endpoints included change from baseline to Week 8 in mean Sleep Onset Latency on the Maintenance of Wakefulness Test (mean SOL-MWT; primary endpoint), ESS total score, and incidence of treatment-emergent adverse events (TEAEs). Participants who completed the placebo-controlled study could enroll in a ˜2-year Long Term Extension (LTE) study. LTE TEAE data up to Jan. 25, 2024 are reported.

Data set [2] has as its system participants with NT1. Put plainly: Safety (TEAEs), LTE study interim analysis, NT1 participants. The settings on record: for TEAE insomnia, frequency / TEAE micturition frequency, frequency / TEAE micturition urgency, frequency: LTE. The source says: This was a phase 2/3 multicenter, dose-blind, long-term extension (LTE) study of Compound A. Participants from controlled studies conducted with Compound A, who had up to a 3-month dosing gap between their parent study and the screening period for this study, were eligible to participate in this study.
Day 1 dosing for all participants occurred in-clinic with PK and safety assessments. Participants who were undergoing nocturnal polysomnography (nPSG) and an MWT during the final assessment of their Compound A parent study had the option of staying overnight in the clinic on Day −1 so they were already in the clinic for Day 1 the following day. Clinic visits after Week 4 were scheduled monthly up to Week 12, then approximately every 3 months until the end of Year 2 (Weeks 2, 4, 8, 12, 26, 38, 52, 64, 78, 90, and 104). […] Participants had either an in-clinic or home health follow up visit 4 weeks after their last dose. All other visits could be conducted through home health. Laboratory tests for safety were obtained biweekly up until Week 12, followed by monthly until Year 1, and then approximately every 3 months thereafter. Monthly phone calls were conducted to collect adverse event (AE) and concomitant medication information in Year 2.
In this dose-blind study, all participants received Compound A. Participants entering the study with or without a dosing gap from a parent Compound A study remained on the same indication-specific dose of Compound A assigned to them in their parent study. Participants randomized to placebo or comparator in their parent study were randomized to one of the indication-specific dose regimens of Compound A available in this study. The investigator could request a change to either a higher or lower dose level of Compound A to be dispensed at Week 8 in the LTE treatment period. Subsequently, if the participant wished to return to their original LTE dose, this could be implemented at Week 12 in the LTE. No further dose adjustments were allowed for the duration of the study, except on a case by case basis as approved by the sponsor. The dose never exceeded the maximum designated dose level in the study. For a participant with NT1, if the next highest dose was the 7 mg total daily dose, the participant was randomized to 1 of those 2 dose regimens (i.e., 2 mg followed by 5 mg, or 7 mg once daily).
Standard safety endpoints (e.g., TEAEs, physical examination findings, vital signs, 12-lead ECG measures, clinical laboratory results) for early clinical investigation were included. Further, because cardiovascular effects had been noted in nonclinical models with Compound A and OX2R agonists in general, and these effects are thought to be on-target effects, close monitoring of cardiovascular parameters, including time-matched BP measurements before and after dosing to detect any changes and potential tolerance in BP after the administration of repeat doses to participants with NT1 or NT2 were included.
For participants with NT1: • Dose Regimen 1: 0.5 mg twice daily, approximately 3 hours apart; • Dose Regimen 2: 2 mg followed by 2 mg, approximately 3 hours apart; • Dose Regimen 3: 2 mg followed by 5 mg, approximately 3 hours apart; * • Dose Regimen 4: 7 mg once daily.*
Participants completing either Example 1 or Example 2 with ≤3 months between parent study-end and LTE screening could enroll. Primary endpoint is the occurrence of treatment-emergent adverse events (TEAEs); secondary endpoints are change from baseline (parent study) in sleep onset latency on the Maintenance of Wakefulness Test (SOL-MWT), Epworth Sleepiness Scale (ESS) score, and weekly cataplexy rate (WCR). Participants with NT1 receive oral Compound A 0.5 mg twice 3 hours apart, 2 mg twice 3 hours apart, 2 mg then 5 mg 3 hours apart, or 7 mg once daily. Dose adjustments are allowed at specific timepoints (8 weeks and 12 weeks of the study and at other weeks on a sponsor-approved case-by-case basis). TEAEs are summarized under the dose at TEAE onset.

For data set [3], the system named is participants with NT1. Briefly: Efficacy (SOL-MWT, ESS, WCR), LTE study interim analysis, NT1 participants. The settings on record: all Compound A doses, up to 6 months (FIG. 31). How it is done:
An nPSG and MWT were conducted on Day 181 and 182, respectively. Cognitive testing were conducted at Week 26 (6 months). ESS and NSS-CT were collected monthly starting at Week 4 and then approximately every 3 months after Week 12. There were additional ESS measurements at Week 2 and in the first week after drug discontinuation. PGI-I and CGI-I were collected approximately every 3 months starting at Week 12. Other patient-reported outcome measures were administered approximately every 6 months up until Year 1.
Participants with NT1 also completed the Cataplexy e-diary daily over 2-week periods to capture the weekly cataplexy rate before the next visit in-clinic. The Cataplexy e-diary was completed at approximately 3-month intervals during Year 1 and at 6-month intervals during Year 2.
Participants completing either Example 1 or Example 2 with ≤3 months between parent study-end and LTE screening could enroll. Primary endpoint is the occurrence of treatment-emergent adverse events (TEAEs); secondary endpoints are change from baseline (parent study) in sleep onset latency on the Maintenance of Wakefulness Test (SOL-MWT), Epworth Sleepiness Scale (ESS) score, and weekly cataplexy rate (WCR). Participants with NT1 receive oral Compound A 0.5 mg twice 3 hours apart, 2 mg twice 3 hours apart, 2 mg then 5 mg 3 hours apart, or 7 mg once daily. […]

[4] abbreviates: 0.5 mg/0.5 mg (dose at TEAE onset).

Each structure is given as a SMILES string.

Take `CCS(=O)(=O)N[C@@H]1[C@H](Cc2cccc(-c3cc(F)cc(F)c3)c2F)N(C(=O)C(C)(C)O)CC1(F)F` [Compound A, N-{(2S,3R)-4,4-difluoro-1-(2-hydroxy-2-methylpropanoyl)-2-[(2,3′,5′-trifluoro[1,1′-biphenyl]-3-yl)methyl]pyrrolidin-3-yl}ethanesulfonamide]: the “Occurrence of TEAEs” value in data set [1] (Compound A-treated participants (28/47), 8 weeks) came to 59.6%. Further, in data set [1] (parent and LTE study), the “Serious TEAEs” value is given as “no serious TEAEs”. Moreover, the “Participants discontinued due to TEAEs” value in data set [1] (parent study (arm not stated)) is “Two”; in data set [2] (LTE interim (N=104), 3 unrelated to Compound A), 6. Besides, in data set [2] (LTE interim), the “Hepatotoxicity or visual disturbances” value was “No cases of hepatotoxicity or visual disturbances were reported”. For the same compound, the “Participants with severe drug-related TEAEs (insomnia, cataplexy)” value in data set [2] (LTE interim (N=104)) is reported as “Two”. The “Participants who experienced a TEAE” value in data set [2] (LTE interim analysis (N=104), all doses) is given as 54.8%. Also, the “TEAE insomnia, frequency” value is 7.1% in data set [2] (setting [4]), 10.9% in data set [2] (2 mg/2 mg (dose at TEAE onset)), 10.8% in data set [2] (2 mg/5 mg (dose at TEAE onset)) and 7.9% in data set [2] (7 mg (dose at TEAE onset)). For the same compound, the “TEAE micturition frequency, frequency” value worked out at 10.7% in data set [2] (setting [4]), 4.3% in data set [2] (2 mg/2 mg (dose at TEAE onset)), 8.1% in data set [2] (2 mg/5 mg (dose at TEAE onset)) and 7.9% in data set [2] (7 mg (dose at TEAE onset)). Besides, the “TEAE micturition urgency, frequency” value in data set [2] (setting [4]) worked out at 10.7%; in data set [2] (2 mg/2 mg (dose at TEAE onset)), 2.2%; in data set [2] (2 mg/5 mg (dose at TEAE onset)), 2.7%; in data set [2] (7 mg (dose at TEAE onset)) it was 10.5%. Moreover, in data set [3], the “Efficacy on SOL-MWT, ESS and WCR over time” value was “maintenance of efficacy”.
